Test results published in patent publication US20260256792A1, “TREATMENT OF CHRONIC SPONTANEOUS URTICARIA BY ADMINISTERING (R)-2-[3-[4-AMINO-3-(2-FLUORO-4-PHENOXY-PHENYL)PYRAZOLO[3,4-D]PYRIMIDIN-1-YL]PIPERIDINE-1-CARBONYL]-4-METHYL-4-[4-(OXETAN-3-YL)PIPERAZIN-1-YL]PENT-2-ENENITRILE” (priority 2023, published 2026).

Test system: moderate-to-severe chronic spontaneous urticaria (CSU)
Test: Phase 2 CSU study: itch severity score over 7 days (ISS7)
Format: in vivo, human
Settings: Omalizumab-Naïve Population
Excerpt: The study comprises a 12 week, randomized, double-blind, placebo-controlled, multi-center, dose-ranging efficacy and safety phase, followed by a 40 week open label extension (OLE) phase (see FIG. 1). The study consists of three phases and an optional OLE phase. […] Clinically, CSU is characterized by the spontaneous and recurrent appearance of pruritic hives. The proposed primary endpoints were the UAS7 at Week 12 in EU and EU reference countries and the ISS7 in the US. Regardless of where a participant was from, all assessments were the same. The UAS7 score is a composite score containing both the HSS7 and the ISS7. This allowed a global assessment of the two key components of urticaria: hives and itch. […] The UAS is a validated PRO measure. […] The daily UAS scores range from 0 to 6 point/day. […] Patients were to complete the UAS using the e-diary. […] The following secondary endpoints were to be analyzed using the same approach as for the primary endpoint: • Change from baseline in UAS7 at Week 4 • Change from baseline in UAS7 at Week 12 (for US and US reference countries) • Change from baseline in ISS7 at Week 12 (except US and US reference countries) • Change from baseline in HSS7 at Week 12

Compound: CC(C)(C=C(C#N)C(=O)N1CCC[C@@H](n2nc(-c3ccc(Oc4ccccc4)cc3F)c3c(N)ncnc32)C1)N1CCN(C2COC2)CC1 [rilzabrutinib, (R)-2-[3-[4-amino-3-(2-fluoro-4-phenoxy-phenyl)pyrazolo[3,4-d]pyrimidin-1-yl]piperidine-1-carbonyl]-4-methyl-4-[4-(oxetan-3-yl)piperazin-1-yl]pent-2-enenitrile]
- Imputed non-responder n (%) (ISS7 reduction of 5 points or more) (400 mg BID, Week 3): 0 n (%)
- Non-responder n (%) (ISS7 reduction of 5 points or more) (400 mg BID, Week 3): 17 (48.6) n (%)
- OR for rilzabrutinib vs. placebo (ISS7 reduction of 5 points or more) (400 mg BID, Week 3): 2.418
- RRD (%) for rilzabrutinib vs. placebo (ISS7 reduction of 5 points or more) (400 mg BID, Week 3): 21.1%
- Responder n (%) (ISS7 reduction of 5 points or more) (400 mg BID, Week 3): 18 (51.4) n (%)
- Imputed non-responder n (%) (ISS7 reduction of 5 points or more) (400 mg BID, Week 4): 2 (5.7) n (%)
- Non-responder n (%) (ISS7 reduction of 5 points or more) (400 mg BID, Week 4): 17 (48.6) n (%)
- OR for rilzabrutinib vs. placebo (ISS7 reduction of 5 points or more) (400 mg BID, Week 4): 1.476
- Responder n (%) (ISS7 reduction of 5 points or more) (400 mg BID, Week 4): 18 (51.4) n (%)
- Imputed non-responder n (%) (ISS7 reduction of 5 points or more) (400 mg BID, Week 5): 2 (5.7) n (%)
- Non-responder n (%) (ISS7 reduction of 5 points or more) (400 mg BID, Week 5): 15 (42.9) n (%)
- OR for rilzabrutinib vs. placebo (ISS7 reduction of 5 points or more) (400 mg BID, Week 5): 1.334
- RRD (%) for rilzabrutinib vs. placebo (ISS7 reduction of 5 points or more) (400 mg BID, Week 5): 7.3%
- Responder n (%) (ISS7 reduction of 5 points or more) (400 mg BID, Week 5): 20 (57.1) n (%)
- Imputed non-responder n (%) (ISS7 reduction of 5 points or more) (400 mg BID, Week 6): 2 (5.7) n (%)
- Non-responder n (%) (ISS7 reduction of 5 points or more) (400 mg BID, Week 6): 17 (48.6) n (%)
- OR for rilzabrutinib vs. placebo (ISS7 reduction of 5 points or more) (400 mg BID, Week 6): 1.326
- RRD (%) for rilzabrutinib vs. placebo (ISS7 reduction of 5 points or more) (400 mg BID, Week 6): 7.1%
- Responder n (%) (ISS7 reduction of 5 points or more) (400 mg BID, Week 6): 18 (51.4) n (%)
- Imputed non-responder n (%) (ISS7 reduction of 5 points or more) (400 mg BID, Week 7): 2 (5.7) n (%)
- Non-responder n (%) (ISS7 reduction of 5 points or more) (400 mg BID, Week 7): 16 (45.7) n (%)
- OR for rilzabrutinib vs. placebo (ISS7 reduction of 5 points or more) (400 mg BID, Week 7): 1.533
- Responder n (%) (ISS7 reduction of 5 points or more) (400 mg BID, Week 7): 19 (54.3) n (%)
- Imputed non-responder n (%) (ISS7 reduction of 5 points or more) (400 mg BID, Week 8): 3 (8.6) n (%)
- Non-responder n (%) (ISS7 reduction of 5 points or more) (400 mg BID, Week 8): 13 (37.1) n (%)
- OR for rilzabrutinib vs. placebo (ISS7 reduction of 5 points or more) (400 mg BID, Week 8): 1.690
- RRD (%) for rilzabrutinib vs. placebo (ISS7 reduction of 5 points or more) (400 mg BID, Week 8): 13.7%
- Responder n (%) (ISS7 reduction of 5 points or more) (400 mg BID, Week 8): 22 (62.9) n (%)
- Imputed non-responder n (%) (ISS7 reduction of 5 points or more) (400 mg BID, Week 9): 7 (20.0) n (%)
- Non-responder n (%) (ISS7 reduction of 5 points or more) (400 mg BID, Week 9): 16 (45.7) n (%)
- OR for rilzabrutinib vs. placebo (ISS7 reduction of 5 points or more) (400 mg BID, Week 9): 1.462
- Responder n (%) (ISS7 reduction of 5 points or more) (400 mg BID, Week 9): 19 (54.3) n (%)
- Imputed non-responder n (%) (ISS7 reduction of 5 points or more) (400 mg BID, Week 10): 8 (22.9) n (%)
- Non-responder n (%) (ISS7 reduction of 5 points or more) (400 mg BID, Week 10): 19 (54.3) n (%)
- OR for rilzabrutinib vs. placebo (ISS7 reduction of 5 points or more) (400 mg BID, Week 10): 0.883
- RRD (%) for rilzabrutinib vs. placebo (ISS7 reduction of 5 points or more) (400 mg BID, Week 10): −3.1%
- Responder n (%) (ISS7 reduction of 5 points or more) (400 mg BID, Week 10): 16 (45.7) n (%)
- Imputed non-responder n (%) (ISS7 reduction of 5 points or more) (400 mg BID, Week 11): 7 (20.0) n (%)
- Non-responder n (%) (ISS7 reduction of 5 points or more) (400 mg BID, Week 11): 16 (45.7) n (%)
- OR for rilzabrutinib vs. placebo (ISS7 reduction of 5 points or more) (400 mg BID, Week 11): 0.963
- RRD (%) for rilzabrutinib vs. placebo (ISS7 reduction of 5 points or more) (400 mg BID, Week 11): −1.0%
- Responder n (%) (ISS7 reduction of 5 points or more) (400 mg BID, Week 11): 19 (54.3) n (%)
- Imputed non-responder n (%) (ISS7 reduction of 5 points or more) (400 mg BID, Week 12): 11 (31.4) n (%)
- Non-responder n (%) (ISS7 reduction of 5 points or more) (400 mg BID, Week 12): 18 (51.4) n (%)
- OR for rilzabrutinib vs. placebo (ISS7 reduction of 5 points or more) (400 mg BID, Week 12): 1.095
- RRD (%) for rilzabrutinib vs. placebo (ISS7 reduction of 5 points or more) (400 mg BID, Week 12): 2.4%
- Responder n (%) (ISS7 reduction of 5 points or more) (400 mg BID, Week 12): 17 (48.6) n (%)
- Imputed non-responder n (%) (ISS7 reduction of 5 points or more) (400 mg QPM, Week 1): 0 n (%)
- Non-responder n (%) (ISS7 reduction of 5 points or more) (400 mg QPM, Week 1): 25 (67.6) n (%)
- OR for rilzabrutinib vs. placebo (ISS7 reduction of 5 points or more) (400 mg QPM, Week 1): 1.691
- Responder n (%) (ISS7 reduction of 5 points or more) (400 mg QPM, Week 1): 12 (32.4) n (%)
- Imputed non-responder n (%) (ISS7 reduction of 5 points or more) (400 mg QPM, Week 2): 0 n (%)
- Non-responder n (%) (ISS7 reduction of 5 points or more) (400 mg QPM, Week 2): 23 (62.2) n (%)
- OR for rilzabrutinib vs. placebo (ISS7 reduction of 5 points or more) (400 mg QPM, Week 2): 1.637
- Responder n (%) (ISS7 reduction of 5 points or more) (400 mg QPM, Week 2): 14 (37.8) n (%)
- Imputed non-responder n (%) (ISS7 reduction of 5 points or more) (400 mg QPM, Week 3): 0 n (%)
- Non-responder n (%) (ISS7 reduction of 5 points or more) (400 mg QPM, Week 3): 20 (54.1) n (%)
- OR for rilzabrutinib vs. placebo (ISS7 reduction of 5 points or more) (400 mg QPM, Week 3): 1.910
- RRD (%) for rilzabrutinib vs. placebo (ISS7 reduction of 5 points or more) (400 mg QPM, Week 3): 16.0%
- Responder n (%) (ISS7 reduction of 5 points or more) (400 mg QPM, Week 3): 17 (45.9) n (%)
- Imputed non-responder n (%) (ISS7 reduction of 5 points or more) (400 mg QPM, Week 4): 1 (2.7) n (%)
- Non-responder n (%) (ISS7 reduction of 5 points or more) (400 mg QPM, Week 4): 20 (54.1) n (%)
- OR for rilzabrutinib vs. placebo (ISS7 reduction of 5 points or more) (400 mg QPM, Week 4): 1.231
- RRD (%) for rilzabrutinib vs. placebo (ISS7 reduction of 5 points or more) (400 mg QPM, Week 4): 5.0%
- Responder n (%) (ISS7 reduction of 5 points or more) (400 mg QPM, Week 4): 17 (45.9) n (%)
- Imputed non-responder n (%) (ISS7 reduction of 5 points or more) (400 mg QPM, Week 5): 2 (5.4) n (%)
- Non-responder n (%) (ISS7 reduction of 5 points or more) (400 mg QPM, Week 5): 21 (56.8) n (%)
- OR for rilzabrutinib vs. placebo (ISS7 reduction of 5 points or more) (400 mg QPM, Week 5): 0.787
- RRD (%) for rilzabrutinib vs. placebo (ISS7 reduction of 5 points or more) (400 mg QPM, Week 5): −6.3%
- Responder n (%) (ISS7 reduction of 5 points or more) (400 mg QPM, Week 5): 16 (43.2) n (%)
- Imputed non-responder n (%) (ISS7 reduction of 5 points or more) (400 mg QPM, Week 6): 4 (10.8) n (%)
- Non-responder n (%) (ISS7 reduction of 5 points or more) (400 mg QPM, Week 6): 20 (54.1) n (%)
- OR for rilzabrutinib vs. placebo (ISS7 reduction of 5 points or more) (400 mg QPM, Week 6): 1.088
- RRD (%) for rilzabrutinib vs. placebo (ISS7 reduction of 5 points or more) (400 mg QPM, Week 6): 2.0%
- Responder n (%) (ISS7 reduction of 5 points or more) (400 mg QPM, Week 6): 17 (45.9) n (%)
- Imputed non-responder n (%) (ISS7 reduction of 5 points or more) (400 mg QPM, Week 7): 6 (16.2) n (%)
- Non-responder n (%) (ISS7 reduction of 5 points or more) (400 mg QPM, Week 7): 19 (51.4) n (%)
- OR for rilzabrutinib vs. placebo (ISS7 reduction of 5 points or more) (400 mg QPM, Week 7): 1.176
- RRD (%) for rilzabrutinib vs. placebo (ISS7 reduction of 5 points or more) (400 mg QPM, Week 7): 4.0%
- Responder n (%) (ISS7 reduction of 5 points or more) (400 mg QPM, Week 7): 18 (48.6) n (%)
- Imputed non-responder n (%) (ISS7 reduction of 5 points or more) (400 mg QPM, Week 8): 7 (18.9) n (%)
- Non-responder n (%) (ISS7 reduction of 5 points or more) (400 mg QPM, Week 8): 20 (54.1) n (%)
- OR for rilzabrutinib vs. placebo (ISS7 reduction of 5 points or more) (400 mg QPM, Week 8): 0.843
- RRD (%) for rilzabrutinib vs. placebo (ISS7 reduction of 5 points or more) (400 mg QPM, Week 8): −4.4%
- Responder n (%) (ISS7 reduction of 5 points or more) (400 mg QPM, Week 8): 17 (45.9) n (%)
- Imputed non-responder n (%) (ISS7 reduction of 5 points or more) (400 mg QPM, Week 9): 6 (16.2) n (%)
- Non-responder n (%) (ISS7 reduction of 5 points or more) (400 mg QPM, Week 9): 18 (48.6) n (%)
- OR for rilzabrutinib vs. placebo (ISS7 reduction of 5 points or more) (400 mg QPM, Week 9): 1.328
- RRD (%) for rilzabrutinib vs. placebo (ISS7 reduction of 5 points or more) (400 mg QPM, Week 9): 6.5%
- Responder n (%) (ISS7 reduction of 5 points or more) (400 mg QPM, Week 9): 19 (51.4) n (%)
- Imputed non-responder n (%) (ISS7 reduction of 5 points or more) (400 mg QPM, Week 10): 6 (16.2) n (%)
